# Measured values from patent publication US20220251095A1, “TRICYCLIC COMPOUND, PREPARATION METHOD THEREFOR AND USE THEREOF” (SHANGHAI JEMINCARE PHARMACEUTICALS CO., LTD., priority 2019, published 2022).
# Target: T1, coagulation factor XIa protease (FXIa) (Homo sapiens, UniProt P03951)
# T1 construct: purchased Abcam ab62411
# Test: Inhibition of coagulation factor XIa (FXIa), chromogenic substrate, absorbance at 405
# Type: biochemical
# Details: FXIa 0.05 μg/mL, substrate 2.5 mM, 37° C. 15 minutes
# Protocol: Coagulation factor XIa protease (FXIa) decomposed the specific substrate to produce yellow p-nitroaniline (pNA), pNA had strong absorption at 405 nm. The inhibitory activity of the compounds on coagulation factor XIa was determined by assaying the absorbance of the compounds at […].
# The coagulation factor XIa protease used in the experiment was purchased from Abcam Company, Item No. ab62411; the coagulation factor XIa-specific substrate was purchased from HYPHEN BioMed, Item No. Biophen cs-21 (66); tris-HCl was purchased from Invitrogen, Item No. 15567-027; NaCl was purchased from ABCONE, Item No. S39168; Twain 20 was purchased from Amersco, Item No. 0777-1L.
# (§1) The compounds were dissolved in 100% DMSO, 20 mM, and stored at room temperature in a nitrogen cabinet.
# a. 20 mM of the tested compound was diluted to 2 mM using 100% DMSO, and the reference compound was diluted to 0.4 mM; the compound was continuously diluted with a 3-fold gradient at 10 concentration points using a Bravo liquid workstation.
# b. The ECHO liquid workstation was used to transfer 10 nL of compound to the corresponding 384-well experimental plate with double replicate wells; the final concentrations of compound reactions were 1000, 333.3, 111.1, 37.0, 12.3, 4.1, 1.37, 0.46, 0.15, and 0.05 nM. The final concentrations of reference compounds were 200, 66.7, 22.2, 7.4, 2.47, 0.82, 0.27, 0.09, 0.03, 0.01 nM.
# c. 10 nL DMSO and 10 nL 0.4 mM reference compounds were transferred to high signal control pores and low signal control pores respectively.
# d. 0.1 μg/mL FXIa enzyme solution was prepared with buffer solution, and 10 μL enzyme solution was added to 384-well experimental plate, 5 mM substrate solution was prepared using buffer solution, and […] substrate solution was added to a 384-well experimental plate. The final concentration of FXIa was 0.05 μg/mL and the final concentration of the substrate was 2.5 mM.
# e. The 384-hole experimental plate was centrifuged and incubated at 37° C. for 15 minutes.
# f. The absorbance was measured at 405 nm using EnVision.
# T1 sequence (P03951 388-625 limits assumed): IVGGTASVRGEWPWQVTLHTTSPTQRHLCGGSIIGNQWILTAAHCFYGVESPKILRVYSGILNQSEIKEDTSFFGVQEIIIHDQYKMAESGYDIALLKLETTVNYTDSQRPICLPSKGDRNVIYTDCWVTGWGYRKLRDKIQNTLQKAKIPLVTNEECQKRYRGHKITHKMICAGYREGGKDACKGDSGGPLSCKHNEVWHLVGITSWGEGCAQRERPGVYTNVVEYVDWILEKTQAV
# T1 sequence (P03951 19-387 partner limits assumed): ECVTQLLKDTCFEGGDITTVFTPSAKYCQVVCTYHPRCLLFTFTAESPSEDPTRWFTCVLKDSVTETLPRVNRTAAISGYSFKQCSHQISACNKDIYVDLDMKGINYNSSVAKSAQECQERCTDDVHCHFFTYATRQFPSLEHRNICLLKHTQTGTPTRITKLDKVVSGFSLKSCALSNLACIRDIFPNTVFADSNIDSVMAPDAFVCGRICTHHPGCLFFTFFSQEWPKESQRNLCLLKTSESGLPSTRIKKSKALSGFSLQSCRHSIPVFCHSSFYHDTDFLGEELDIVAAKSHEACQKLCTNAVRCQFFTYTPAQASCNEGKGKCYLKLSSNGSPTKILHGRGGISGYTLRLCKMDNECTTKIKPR
row,IC50 [nM],Structure (SMILES)
1,0.83,O=C1CCc2cc(-c3[nH]c([C@@H]4[C@H]5C[C@H]5c5cc(-c6cc(Cl)ccc6-n6cnnn6)cc(=O)n54)nc3F)ccc2N1 [Embodiment 17]
2,4.24,O=C1CCc2cc(-c3[nH]c([C@@H]4[C@H]5C[C@H]5c5nc(-c6cc(Cl)ccc6-n6cc(Cl)nn6)cc(=O)n54)nc3F)ccc2N1 [Embodiment 92]
3,0.31,Nc1n[nH]c2c(F)c(-c3cnc([C@@H]4[C@H]5C[C@H]5c5cc(-c6cc(Cl)ccc6-n6cnnn6)cc(=O)n54)[nH]3)ccc12 [Embodiment 86]
4,6.4,Nc1ccc(-c2[nH]c([C@@H]3[C@H]4C[C@H]4c4cc(-c5cc(Cl)ccc5-n5cnnn5)cc(=O)n43)nc2F)cc1OC(F)(F)F [Embodiment 49]
5,6.3,O=C1COc2cc(-c3cnc([C@@H]4[C@H]5C[C@H]5c5cc(-c6cc(Cl)ccc6-n6cnnn6)cc(=O)n54)[nH]3)ccc2N1 [Embodiment 20]
6,12.5,O=C1CCc2cc(-c3cnc([C@@H]4[C@H]5C[C@H]5c5nc(-c6cc(Cl)ccc6-n6cc(Cl)nn6)cc(=O)n54)[nH]3)ccc2N1 [Embodiment 89]
7,0.36,Nc1noc2cc(-c3[nH]c([C@@H]4[C@H]5C[C@H]5c5cc(-c6cc(Cl)ccc6-n6cc(Cl)nn6)cc(=O)n54)nc3F)ccc12 [Embodiment 69]
8,7.02,Nc1ccc(-c2[nH]c([C@@H]3[C@H]4C[C@H]4c4cc(-c5cc(Cl)ccc5-n5cnnn5)cc(=O)n43)nc2F)cc1C(F)(F)F [Embodiment 50]
9,4.78,O=C1Nc2ccc(-c3[nH]c([C@@H]4[C@H]5C[C@H]5c5cc(-c6cc(Cl)ccc6-n6cc(Cl)nn6)cc(=O)n54)nc3F)cc2CO1 [Embodiment 64]
10,6.5,Nc1ccc(-c2cnc([C@@H]3[C@H]4C[C@H]4c4cc(-c5cc(Cl)ccc5-n5cnnn5)cc(=O)n43)[nH]2)c(F)n1 [Embodiment 1]
11,0.85,Nc1n[nH]c2cc(-c3[nH]c([C@@H]4[C@H]5C[C@H]5c5cc(-c6cc(Cl)ccc6-n6cc(Cl)nn6)cc(=O)n54)nc3F)ccc12 [Embodiment 33]
12,0.83,Nc1n[nH]c2cc(-c3[nH]c([C@@H]4[C@H]5C[C@H]5c5cc(-c6cc(Cl)ccc6-n6cc(C(F)F)nn6)cc(=O)n54)nc3F)ccc12 [Embodiment 83]
13,3.54,Nc1noc2c(F)c(-c3cnc([C@@H]4[C@H]5C[C@H]5c5cc(-c6cc(Cl)ccc6-n6cc(Cl)nn6)cc(=O)n54)[nH]3)ccc12 [Embodiment 68]
14,1.41,CC1Cc2cc(-c3[nH]c([C@@H]4[C@H]5C[C@H]5c5cc(-c6cc(Cl)ccc6-n6cnnn6)cc(=O)n54)nc3F)ccc2NC1=O (stereo partly shown) [Embodiment 59]
15,3.18,O=C1CCc2cc(-c3[nH]c([C@@H]4[C@H]5C[C@H]5c5cc(-c6cc(Cl)ccc6-n6cc(Cl)nn6)cc(=O)n54)nc3Cl)ccc2N1 [Embodiment 77]
16,5.27,Cn1nc(N)c2ccc(-c3[nH]c([C@@H]4[C@H]5C[C@H]5c5cc(-c6cc(Cl)ccc6-n6cc(Cl)nn6)cc(=O)n54)nc3F)cc21 [Embodiment 75]
17,0.82,Nc1noc2cc(-c3cnc([C@@H]4[C@H]5C[C@H]5c5cc(-c6cc(Cl)ccc6-n6cnnn6)cc(=O)n54)[nH]3)ccc12 [Embodiment 28]

# Tested on: human plasma
# Test: Anticoagulant effect on human blood in vitro (APTT clotting time, CT2.0)
# Details: final concentration of compound corresponding to aPTT of the 2-fold blank control
# Protocol: Activated partial thromboplastin time (APTT) measurement reagent was mixed with plasma and the reaction was carried out continuously resulting in a change in optical density up to the clotting point, and the clotting time (CT) was measured by optical turbidimetry using a semi-automatic coagulation analyzer. The in vitro anticoagulant activity of compounds on human blood was determined by detecting the clotting time of plasma treated with different concentrations of compounds, and the corresponding concentration of compounds prolonging clotting time was calculated.
# Human plasma used in the experiment was purchased from HD Biosciences (Shanghai) Co., Ltd.; Activated partial thromboplastin time determination kit was purchased from Taizhou Zhongqin Shidi Biotechnology Co., Ltd., Item No. SS00220005.
# as §1
# a. The NaCl reagent in the kit was incubated half an hour in advance, and the APTT reagent was balanced to room temperature.
# b. The compound was continuously diluted at 14 concentration points using a Bravo liquid workstation with a 2-fold gradient.
# c. 0.75 μL of the compound was added to the measuring cup, double-replicate wells; 50 μL of plasma was added and 50 μL of APTT reagent was added, the mixture was mixed well and put into coagulation analyzer for incubation at 37° C. for 3 minutes.
# d. APTT assay was started, 50 μL of NaCl was added to start the reaction, and the clotting time was counted.
# e. Control clotting time was measured using 100% DMSO instead of the compound, and the final concentration of DMSO was 0.5%.
# Data were curve-fitted using Graphpad Prism to calculate CT2.0, the final concentration of compound corresponding to aPTT of the 2-fold blank control was calculated.
row,Structure (SMILES),CT2.0 [µM]
1,O=C1CCc2cc(-c3[nH]c([C@@H]4[C@H]5C[C@H]5c5cc(-c6cc(Cl)ccc6-n6cnnn6)cc(=O)n54)nc3F)ccc2N1 [Embodiment 17],0.54
2,O=C1CCc2cc(-c3[nH]c([C@@H]4[C@H]5C[C@H]5c5nc(-c6cc(Cl)ccc6-n6cc(Cl)nn6)cc(=O)n54)nc3F)ccc2N1 [Embodiment 92],0.83
3,Nc1n[nH]c2c(F)c(-c3cnc([C@@H]4[C@H]5C[C@H]5c5cc(-c6cc(Cl)ccc6-n6cnnn6)cc(=O)n54)[nH]3)ccc12 [Embodiment 86],0.20
4,Nc1ccc(-c2[nH]c([C@@H]3[C@H]4C[C@H]4c4cc(-c5cc(Cl)ccc5-n5cnnn5)cc(=O)n43)nc2F)cc1OC(F)(F)F [Embodiment 49],6.86
5,O=C1COc2cc(-c3cnc([C@@H]4[C@H]5C[C@H]5c5cc(-c6cc(Cl)ccc6-n6cnnn6)cc(=O)n54)[nH]3)ccc2N1 [Embodiment 20],0.88
6,O=C1CCc2cc(-c3cnc([C@@H]4[C@H]5C[C@H]5c5nc(-c6cc(Cl)ccc6-n6cc(Cl)nn6)cc(=O)n54)[nH]3)ccc2N1 [Embodiment 89],1.29
7,Nc1noc2cc(-c3[nH]c([C@@H]4[C@H]5C[C@H]5c5cc(-c6cc(Cl)ccc6-n6cc(Cl)nn6)cc(=O)n54)nc3F)ccc12 [Embodiment 69],0.86
8,Nc1ccc(-c2[nH]c([C@@H]3[C@H]4C[C@H]4c4cc(-c5cc(Cl)ccc5-n5cnnn5)cc(=O)n43)nc2F)cc1C(F)(F)F [Embodiment 50],3.16
9,O=C1Nc2ccc(-c3[nH]c([C@@H]4[C@H]5C[C@H]5c5cc(-c6cc(Cl)ccc6-n6cc(Cl)nn6)cc(=O)n54)nc3F)cc2CO1 [Embodiment 64],1.11
10,Nc1ccc(-c2cnc([C@@H]3[C@H]4C[C@H]4c4cc(-c5cc(Cl)ccc5-n5cnnn5)cc(=O)n43)[nH]2)c(F)n1 [Embodiment 1],1.72
11,Nc1n[nH]c2cc(-c3[nH]c([C@@H]4[C@H]5C[C@H]5c5cc(-c6cc(Cl)ccc6-n6cc(Cl)nn6)cc(=O)n54)nc3F)ccc12 [Embodiment 33],0.69
12,Nc1n[nH]c2cc(-c3[nH]c([C@@H]4[C@H]5C[C@H]5c5cc(-c6cc(Cl)ccc6-n6cc(C(F)F)nn6)cc(=O)n54)nc3F)ccc12 [Embodiment 83],0.82
13,Nc1noc2c(F)c(-c3cnc([C@@H]4[C@H]5C[C@H]5c5cc(-c6cc(Cl)ccc6-n6cc(Cl)nn6)cc(=O)n54)[nH]3)ccc12 [Embodiment 68],0.65
14,CC1Cc2cc(-c3[nH]c([C@@H]4[C@H]5C[C@H]5c5cc(-c6cc(Cl)ccc6-n6cnnn6)cc(=O)n54)nc3F)ccc2NC1=O (stereo partly shown) [Embodiment 59],0.84
15,O=C1CCc2cc(-c3[nH]c([C@@H]4[C@H]5C[C@H]5c5cc(-c6cc(Cl)ccc6-n6cc(Cl)nn6)cc(=O)n54)nc3Cl)ccc2N1 [Embodiment 77],0.82
16,Cn1nc(N)c2ccc(-c3[nH]c([C@@H]4[C@H]5C[C@H]5c5cc(-c6cc(Cl)ccc6-n6cc(Cl)nn6)cc(=O)n54)nc3F)cc21 [Embodiment 75],1.42
17,Nc1noc2cc(-c3cnc([C@@H]4[C@H]5C[C@H]5c5cc(-c6cc(Cl)ccc6-n6cnnn6)cc(=O)n54)[nH]3)ccc12 [Embodiment 28],0.07
